Source: patent publication US10501516B2, “Peptide compound” (TAKEDA PHARMACEUTICAL COMPANY LIMITED, priority 2016, dated 2019)
Square brackets hold non-standard residues; d marks the D form. Side chains are listed from the residue outwards. Peptide text beside a SMILES is read from it. * marks the point of attachment. C18 diacid = O=C(O)CCCCCCCCCCCCCCCCC(=O)*; Phe(2-F) = N[C@@H](Cc1ccccc1F)C(=O)O; NMeY = CN[C@@H](Cc1ccc(O)cc1)C(=O)O; αMeF = C[C@](N)(Cc1ccccc1)C(=O)O; Iva = CC[C@](C)(N)C(=O)O; Aib = CC(C)(N)C(=O)O

How the values were obtained:
human NPY2R = biological target: T1, human NPY2R (Homo sapiens, UniProt P49146); assay: Reporter assay of human NPY2R gene (agonist activity, decrease in intracellular cAMP as index); format: cell-based; settings: Cre-luc reporter, hNPY2R CHO-K1 cells, forskolin 1.2 μM, 4 hours; read-out: Agonist activity (EC50) hY2R
T1 construct: expressed in transfected cells; host or cells: CHO-K1 Cre-luc reporter cells (pAKKO1114/hNPY2R#481 No. 88 cells)
T1 sequence (P49146 1-381): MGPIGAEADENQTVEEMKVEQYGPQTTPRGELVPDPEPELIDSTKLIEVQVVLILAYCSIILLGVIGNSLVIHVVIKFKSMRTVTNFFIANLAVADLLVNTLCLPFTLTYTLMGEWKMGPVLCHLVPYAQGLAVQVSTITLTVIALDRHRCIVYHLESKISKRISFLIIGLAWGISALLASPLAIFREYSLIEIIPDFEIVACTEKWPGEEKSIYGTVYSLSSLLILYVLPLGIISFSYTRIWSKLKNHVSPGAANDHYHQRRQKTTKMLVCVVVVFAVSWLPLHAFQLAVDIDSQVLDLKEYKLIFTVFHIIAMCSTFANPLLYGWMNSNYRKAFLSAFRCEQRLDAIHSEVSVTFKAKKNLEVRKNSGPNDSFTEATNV
Description: Evaluation of Agonist Activity Against Human NPY2R, Human GIPR, and Human GLP-1R Using Change in Intracellular cAMP Concentration as Index
The human NPY2R gene having a sequence identical to the sequence of GenBank Accession No. AC104407 was cloned into pAKKO1114 vector to prepare hNPY2R/pAKKO1114. Next, pGL4.29 (Promega) was introduced to CHO-K1 cells, which were then screened with hygromycin to construct Cre-luc reporter cells. These cells were cotransfected with hNPY2R/pAKKO1114 and pcDNA3.1 (Life Technologies Corp.), and the cells were screened with geneticin. Next, a cell line induced to express luciferase, i.e., pAKKO1114/hNPY2R#481 No. 88 cells, were selected from the obtained transformants by the addition of human PYY (3-36).
The pAKKO1114/hNPY2R#481 No. 88 cells were inoculated at a cell density of 25 μL/well (5,000 cells/well) to a 384-well white plate (Corning, 3570), and cultured overnight in Ham F12 medium containing 10% fetal bovine serum, 100 U/mL penicillin and 100 μg/mL streptomycin in a CO2 incubator of 37° C. On the next day, the medium was removed, and an assay medium (Ham F12 medium containing 0.1% BSA, 100 U/mL penicillin and 100 μg/mL streptomycin) containing forskolin (final concentration: 1.2 μM) was added at a concentration of 25 μL/well to the cells. Next, an assay medium containing a test compound was added at a concentration of 5 μL/well to the cells, and the resultant cells were incubated for 4 hours in a CO2 incubator of 37° C. to give the final concentration of 1 μM. SteadyGlo (Promega) was added thereto at a concentration of 30 μL/well, and the mixture was left standing for 20 minutes with light shielded. The luciferase activity was measured using a plate reader Envision (PerkinElmer). The luciferase activity from the addition of DMSO was defined as 100%, and the luciferase activity from the addition of 1 μM human PYY(3-36) instead of the test compound was defined as 0%. The NPY2R agonist activity was calculated with a decrease in intracellular cAMP concentration as an index.

male C57BL/6J mouse = assay: Evaluation of feeding suppressive action in mice; format: in vivo; settings: 3-days cumulative food consumption vs solvent control
Method in brief: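 Male C57BL/6J mice, 8-9 weeks, ad libitum fed, given compound (30 or 100 nmol/2 mL in 10% DMSO saline) s.c. at 2 mL/kg once daily for 3 days. Cumulative 3-day food consumption measured by weighing; suppression rate (%) calculated relative to vehicle controls.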

SMILES	EC50 (human NPY2R) [nM]	Rate of feeding suppression (%) (male C57BL/6J mouse; 100 nmol/kg s.c. once a day for 3 days)	Rate of feeding suppression (%) (male C57BL/6J mouse; 30 nmol/kg s.c. once a day for 3 days)
CC[C@H](C)[C@H](NC(=O)C(C)(C)NC(=O)[C@H](CCCCNC(=O)CNC(=O)CNC(=O)CNC(=O)CNC(=O)CCCCCCCCCCCCCCCCC(=O)O)NC(=O)[C@H](CC(=O)O)NC(=O)[C@H](CO)NC(=O)[C@@H](NC(=O)[C@](C)(Cc1ccccc1)NC(=O)[C@@H](NC(=O)CNC(=O)[C@H](CCC(=O)O)NC(=O)C(C)(C)NC(=O)[C@@H](N)Cc1ccc(O)cc1)[C@@H](C)O)[C@@H](C)O)C(=O)NC(C)(C)C(=O)N[C@@H](CC(C)C)C(=O)N[C@@H](CC(=O)O)C(=O)N[C@@H](CCCCN)C(=O)N[C@@H](CCC(N)=O)C(=O)N[C@@H](C)C(=O)N[C@@H](CCC(N)=O)C(=O)N[C@@](C)(CC)C(=O)N[C@@H](CCC(=O)O)C(=O)N[C@@H](Cc1ccccc1)C(=O)N[C@H](C(=O)N[C@@H](CCCNC(=N)N)C(=O)N[C@@H](Cc1c[nH]cn1)C(=O)N[C@@H](CC(C)C)C(=O)N[C@@H](CC(C)C)C(=O)N[C@@H](CC(N)=O)C(=O)N[C@@H](CCCCN)C(=O)NC(C)(C)C(=O)N[C@H](C(=O)N[C@@H](CCCNC(=N)N)C(=O)N[C@@H](CCC(N)=O)C(=O)N[C@@H](CCCNC(=N)N)C(=O)N[C@@H](Cc1ccccc1F)C(N)=O)[C@@H](C)O)C(C)C [Example 2] (H-Y[Aib]EGT[αMeF]TSDK([Gly-Gly-Gly-Gly-C18 diacid])[Aib]I[Aib]LDKQAQ[Iva]EFVRHLLNK[Aib]TRQR[Phe(2-F)]-NH2)	2.1	−77.3	–
CC[C@H](C)[C@H](NC(=O)C(C)(C)NC(=O)[C@H](CCCCNC(=O)CNC(=O)CNC(=O)CNC(=O)CNC(=O)CCCCCCCCCCCCCCCCC(=O)O)NC(=O)[C@H](CC(=O)O)NC(=O)[C@H](CO)NC(=O)[C@@H](NC(=O)[C@](C)(Cc1ccccc1)NC(=O)[C@@H](NC(=O)CNC(=O)[C@H](CCC(=O)O)NC(=O)C(C)(C)NC(=O)[C@@H](N)Cc1ccc(O)cc1)[C@@H](C)O)[C@@H](C)O)C(=O)NC(C)(C)C(=O)N[C@@H](CC(C)C)C(=O)N[C@@H](CC(=O)O)C(=O)N[C@@H](CCCCN)C(=O)N[C@@H](CCC(N)=O)C(=O)N[C@@H](CCCNC(=N)N)C(=O)N[C@@H](CCC(N)=O)C(=O)N[C@@](C)(CC)C(=O)N[C@@H](CCC(=O)O)C(=O)N[C@@H](Cc1ccccc1)C(=O)N[C@H](C(=O)N[C@@H](CCCNC(=N)N)C(=O)N[C@@H](Cc1c[nH]cn1)C(=O)N[C@@H](CC(C)C)C(=O)N[C@@H](CC(C)C)C(=O)N[C@@H](CC(N)=O)C(=O)N[C@@H](CCCCN)C(=O)NC(C)(C)C(=O)N[C@H](C(=O)N[C@@H](CCCNC(=N)N)C(=O)N[C@@H](CCC(N)=O)C(=O)N[C@@H](CCCNC(=N)N)C(=O)N[C@@H](Cc1ccc(O)cc1)C(N)=O)[C@@H](C)O)C(C)C [Example 8] (H-Y[Aib]EGT[αMeF]TSDK([Gly-Gly-Gly-Gly-C18 diacid])[Aib]I[Aib]LDKQRQ[Iva]EFVRHLLNK[Aib]TRQRY-NH2)	2.1	–	–
CC[C@H](C)[C@H](NC(=O)[C@H](CO)NC(=O)[C@H](CCCCNC(=O)CNC(=O)CNC(=O)CNC(=O)CNC(=O)CCCCCCCCCCCCCCCCC(=O)O)NC(=O)[C@H](CC(=O)O)NC(=O)[C@H](CO)NC(=O)[C@@H](NC(=O)[C@](C)(Cc1ccccc1)NC(=O)[C@@H](NC(=O)CNC(=O)[C@H](CCC(=O)O)NC(=O)C(C)(C)NC(=O)[C@@H](N)Cc1ccc(O)cc1)[C@@H](C)O)[C@@H](C)O)C(=O)NC(C)(C)C(=O)N[C@@H](CC(C)C)C(=O)N[C@@H](CC(=O)O)C(=O)N[C@@H](CCCCN)C(=O)N[C@@H](CCC(N)=O)C(=O)N[C@@H](CCCNC(=N)N)C(=O)N[C@@H](CCC(N)=O)C(=O)N[C@@](C)(CC)C(=O)N[C@@H](CCC(=O)O)C(=O)N[C@@H](Cc1ccccc1)C(=O)N[C@H](C(=O)N[C@@H](CCCNC(=N)N)C(=O)N[C@@H](Cc1c[nH]cn1)C(=O)N[C@@H](CC(C)C)C(=O)N[C@@H](CC(C)C)C(=O)N[C@@H](CC(N)=O)C(=O)N[C@@H](CCCCN)C(=O)NC(C)(C)C(=O)N[C@H](C(=O)N[C@@H](CCCNC(=N)N)C(=O)N[C@@H](CCC(N)=O)C(=O)N[C@@H](CCCNC(=N)N)C(=O)N[C@@H](Cc1ccc(O)cc1)C(N)=O)[C@@H](C)O)C(C)C [Example 16] (H-Y[Aib]EGT[αMeF]TSDK([Gly-Gly-Gly-Gly-C18 diacid])SI[Aib]LDKQRQ[Iva]EFVRHLLNK[Aib]TRQRY-NH2)	2.6	–	–
CC[C@H](C)[C@H](NC(=O)C(C)(C)NC(=O)[C@H](CCCCNC(=O)CNC(=O)CNC(=O)CNC(=O)CNC(=O)CCCCCCCCCCCCCCCCC(=O)O)NC(=O)[C@H](CC(=O)O)NC(=O)[C@H](CO)NC(=O)[C@@H](NC(=O)[C@](C)(Cc1ccccc1)NC(=O)[C@@H](NC(=O)CNC(=O)[C@H](CCC(=O)O)NC(=O)C(C)(C)NC(=O)[C@H](Cc1ccc(O)cc1)NC)[C@@H](C)O)[C@@H](C)O)C(=O)NC(C)(C)C(=O)N[C@@H](CC(C)C)C(=O)N[C@@H](CCC(=O)O)C(=O)N[C@@H](CCCCN)C(=O)N[C@@H](CCC(N)=O)C(=O)N[C@@H](CCCNC(=N)N)C(=O)N[C@@H](CCC(N)=O)C(=O)N[C@@](C)(CC)C(=O)N[C@@H](CCC(=O)O)C(=O)N[C@@H](Cc1ccccc1)C(=O)N[C@H](C(=O)N[C@@H](CCCNC(=N)N)C(=O)N[C@@H](Cc1c[nH]cn1)C(=O)N[C@@H](CC(C)C)C(=O)N[C@@H](CC(C)C)C(=O)N[C@@H](CC(N)=O)C(=O)N[C@@H](CCCCN)C(=O)NC(C)(C)C(=O)N[C@H](C(=O)N[C@@H](CCCNC(=N)N)C(=O)N[C@@H](CCC(N)=O)C(=O)N[C@@H](CCCNC(=N)N)C(=O)N[C@@H](Cc1ccc(O)cc1)C(N)=O)[C@@H](C)O)C(C)C [Example 34] (H-[NMeY][Aib]EGT[αMeF]TSDK([Gly-Gly-Gly-Gly-C18 diacid])[Aib]I[Aib]LEKQRQ[Iva]EFVRHLLNK[Aib]TRQRY-NH2)	1.5	–	−39.9
